Patent US9919027B2, “Lipid nanoparticle of polymyxin” (priority 2013, dated 2018)

What was measured:
[1] = system: 31 P. aeruginosa strains obtained from 31 patients with cystic fibrosis; assay: In vitro minimum inhibitory concentration (MIC) in MHBCA broth; format: cell-based; conditions: 24 hours at 37° C.
Procedure: The antibacterial action of an antibiotic can be measured by means of the minimum inhibitory concentration, which consists of the concentration of the antibiotic required to prevent bacterial growth after the incubation of 10^4-5 bacteria in rapid growth phase, in an aerobic, protein-free medium with pH 7.2 for an incubation period of one night. This term is used to determine the sensitivity of the bacteria to a specific antibiotic agent.
100 μl of a concentration of 10^4 Colony Forming Units (CFU)/ml of 31 P. aeruginosa strains obtained from 31 patients with cystic fibrosis, 13 strains of which were mucus producers, were incubated for 24 hours at 37° C. in a Mueller Hinton broth, cation-adjusted (MHBCA) medium, corresponding to between 20 mg and 25 mg per liter of calcium and between 10 mg and 12.5 mg per liter of magnesium, assuring the reproducibility of the results for P. aeruginosa, in the presence of colistimethate sodium, and nanoparticles obtained according to Examples 1b and 2b, at different concentrations (less than 0.25, 0.25, 0.5, 1, 2, 4, 8 and 32 μg/ml).

[2] = system: mucosa producing P. aeruginosa strain; assay: In vivo efficacy in CD1 mice with pulmonary infection, lung bacteria count; conditions: infected CD1 mice; intratracheal, once a day for three days; 3000 IU (0.24 mg colistimethate sodium equivalent)
Procedure: To carry out the in vivo toxicity and efficacy assays of the nanoparticles of the present invention, it was necessary to establish a rodent infection model. An intratracheal administration of different concentrations of mucosa producing P. aeruginosa included in microspheres (Concentration 1: 5×10^4 CFU, Concentration 2: 2.4×10^7 CFU, and Concentration 3: 3.89×10^10), obtained from a patient with cystic fibrosis, suspended in PBS, in CD1 mice was carried out, administering a different concentration to each rodent, to establish the optimum concentration for generating a suitable pulmonary infection, capable of making the rodents sick without causing their immediate death.
Five mice were used as the control group and 64 mice infected with the inoculation of the bacteria of a mucosa producing P. aeruginosa strain, at a concentration of 2.4×10^7 CFU, as explained in Example 8, were used. […] The amounts were calculated by adjusting the dose recommended in humans with respect to the weight of the mice (3000 IU, equivalent to 0.24 mg of free colistimethate sodium, equivalent to 2.88 mg of the nanoparticles according to Example 1b and 2.52 mg of nanoparticles according to Example 2b). […]

H441 cell line = assay: Cell viability IC50 (CCK-8) as toxicity marker, H441; format: cell-based, human; conditions: 24 h incubation, triplicate
Procedure: (§1) The median inhibition concentration value (IC50) refers to the concentration of an assayed sample required to inhibit the growth of the 50% of the cell population. In this case IC50 value was estimated as a toxicity marker, as the cell viability assay is run under human cell (A549 and H441 cell lines, which are immortalised lines derived from human adenocarcinomic epithelial cell). Cells (at a density of 12,000 cells per well in a 96-well plate) were grown in Dulbecco's Modified Eagle Medium (DMEM) supplemented with 10% foetal bovine serum (FBS), 1% L-glutamine, 1% penicillin/streptomycin solution and 1% of Minimum Essential Medium non-essential amino acids 100× (MEM-NEAA) at 37° C. and 5% CO2 for 24 hours. Decreasing concentrations of nanoparticles 1b and 2b and free colistimethate sodium, starting from 10 mg/ml to 0.07812 mg/ml were added to the cells, diluted in DMEM supplemented with 0.5% serum and incubated at 37°±2° C. and 5% CO2 for 24 h. Cell viability was assessed by means of the Cell Counting Kit 8 after a washing step. With this aim, 10% of CCK-8 reagent was added to each well and incubated in a wet chamber for 4 hours at 37°±2° C. and 5% CO2. Subsequently, the absorbance was read at 450 nm and at 650 nm as the reference wavelength. The absorbance was directly proportional to the number of living cells in culture. […]

A549 cell line = assay: Cell viability IC50 (CCK-8) as toxicity marker, A549; format: cell-based, human; conditions: 24 h incubation, triplicate
Procedure: as §1

Substance: colistimethate sodium
- MIC ([1]; obtained for 16% of the 31 strains): 0.5 µg/mL
- MIC ([1]; obtained for 25% of the 31 strains): 1 µg/mL
- MIC ([1]; obtained for 48% of the 31 strains): 2 µg/mL
- MIC ([1]; obtained for the remaining strains): 4 µg/mL
- Bacterial count (log CFU for every 2 lungs) [2]: 4.9 ± 0.2 log CFU for every 2 lungs
- IC50 (median inhibition concentration, cell viability) (H441 cell line): 6.58 ± 0.72 µg/mL
- IC50 (median inhibition concentration, cell viability) (A549 cell line): 101.27 ± 14.44 µg/mL
